Patent publication US20240174671A1, “New 2,3-Dihydro-1H-pyrrolo[3,2-b]pyridine Derivatives as Sigma Ligands” (ACONDICIONAMIENTO TARRASENSE, priority 2021, published 2024)

Assays:
sigma-2 site = sigma-2 site (Homo sapiens, UniProt Q5BJF2); conditions: background statement; cited from earlier work
[1] = system: mechanical hypersensitivity in SNI mice; conditions: SNI mice model of neuropathic pain; cited from earlier work
human σ1 receptor = molecular target: T1, human σ1 receptor (Homo sapiens, UniProt Q99720); experiment: Human σ1 receptor radioligand assay ([3H](+)-pentazocine); assay type: binding; conditions: transfected HEK-293 membranes, 5 nM [3H](+)-pentazocine, 37° C., 120 minutes; read-out: Binding σ-[…] (binding to σ1-receptor expressed as Ki)
T1 construct: expressed in transfected cells; host or cells: HEK-293
Outline: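 Binding used [3H](+)-pentazocine, 120 min at 37° C, with non-specific binding defined by 10 μM haloperidol. Bound radioligand was collected by filtration, washed with ice-cold 10 mM Tris-HCl pH 7.4 and counted by scintillation.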

human σ2/TMEM97 receptor = molecular target: T2, human σ2/TMEM97 receptor (Homo sapiens, UniProt Q5BJF2); experiment: Binding assay to human σ2/TMEM97 receptor ([3H]-DTG); conditions: transfected HEK-293 membranes, 10 nM [3H]-DTG, 25° C., 120 minutes; read-out: Binding σ-[…] (binding to σ2-receptor expressed as Ki)
T2 construct: expressed in transfected cells; host or cells: HEK-293
Outline: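 Membranes from transfected HEK-293 cells incubated with 10 nM [3H]-DTG in 50 mM Tris-HCl pH 8.0, 120 min at 25 °C; non-specific binding defined with 10 μM haloperidol. Bound radioactivity counted after filtration; compounds tested as % inhibition at 1 or 10 μM or at five concentrations for Ki.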

T2 sequence (Q5BJF2 whole entry): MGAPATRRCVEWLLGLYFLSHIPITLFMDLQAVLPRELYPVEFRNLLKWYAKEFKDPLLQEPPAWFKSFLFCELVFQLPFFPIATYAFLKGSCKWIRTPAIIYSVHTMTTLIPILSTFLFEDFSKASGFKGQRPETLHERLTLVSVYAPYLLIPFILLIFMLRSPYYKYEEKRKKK
T1 sequence (Q99720 whole entry): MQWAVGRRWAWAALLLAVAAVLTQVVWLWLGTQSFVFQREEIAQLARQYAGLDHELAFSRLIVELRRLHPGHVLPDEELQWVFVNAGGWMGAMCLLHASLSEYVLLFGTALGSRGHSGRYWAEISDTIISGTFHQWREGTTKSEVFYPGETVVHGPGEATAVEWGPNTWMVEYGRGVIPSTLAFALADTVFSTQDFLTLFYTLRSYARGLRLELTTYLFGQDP
Sequence of sigma-2 site (Q5BJF2 whole entry): as the sequence (Q5BJF2 whole entry) above

In the case of (+)-SKF-10047, the “affinity for the sigma-2 site” value (sigma-2 site) is given as “micromolar affinity”.

For UKH-1114, the mechanical hypersensitivity [1] is given as “relieved mechanical hypersensitivity”.

With `Cc1ccc2c(n1)C(C)(C)CN2C(=O)[C@H]1CC[C@H](N(C)Cc2ccnc(C(F)(F)F)c2)CC1` [Example 177, ((1r,4r)-4-(methyl((2-(trifluoromethyl)pyridin-4-yl)methyl)amino)cyclohexyl)(3,3,5-trimethyl-2,3-dihydro-1H-pyrrolo[3,2-b]pyridin-1-yl)methanone] the Ki (human σ1 receptor) was 100 to 500 nM and the Ki (human σ2/TMEM97 receptor) was less than 100 nM.

For `Cc1ccc2c(n1)C(C)(C)CN2C(=O)N1C[C@H]2CN(Cc3ccccc3)C[C@H]2C1` [Example 36, ((3aR,6aS)-5-benzylhexahydropyrrolo[3,4-c]pyrrol-2(1H)-yl)(3,3,5-trimethyl-2,3-dihydro-1H-pyrrolo[3,2-b]pyridin-1-yl)methanone], the Ki (human σ1 receptor) was 100 to 500 nM and the Ki (human σ2/TMEM97 receptor) was 500 to 1000 nM.

Work on `CCOCCN1CCC(NC(=O)N2CC(C)(C)c3nc(C)ccc32)CC1` [Example 28, N-(1-(2-ethoxyethyl)piperidin-4-yl)-3,3,5-trimethyl-2,3-dihydro-1H-pyrrolo[3,2-b]pyridine-1-carboxamide] yielded a Ki (human σ1 receptor) of 100 to 500 nM and a Ki (human σ2/TMEM97 receptor) greater than 1000 nM.

In the case of `CC1(C)CN(C(=O)N2CCC3(CCN(Cc4ccc(F)c(C#N)c4)CC3)CC2)c2cccnc21` [Example 147, 5-((9-(3,3-dimethyl-2,3-dihydro-1H-pyrrolo[3,2-b]pyridine-1-carbonyl)-3,9-diazaspiro[5.5]undecan-3-yl)methyl)-2-fluorobenzonitrile], the Ki (human σ1 receptor) is reported as less than 100 nM and the Ki (human σ2/TMEM97 receptor) is reported as less than 100 nM.

`CC1(C)CN(C(=O)NCC2CCN(CCc3ccccc3)CC2)c2cccnc21` [Example 70, 3,3-dimethyl-N-((1-phenethylpiperidin-4-yl)methyl)-2,3-dihydro-1H-pyrrolo[3,2-b]pyridine-1-carboxamide] showed a Ki (human σ1 receptor) greater than 1000 nM and a Ki (human σ2/TMEM97 receptor) of 100 to 500 nM.
